# Patent US20130331345A1, “PUERARIN HYDRATES, PREPARATION METHODS AND USES THEREOF” (priority 2010, published 2013)
# What was measured:
# ACE = target: T1, ACE (Rattus norvegicus, UniProt P47820); test: Effects on inhibiting ACE activity (rat blood serum after intraperitoneal injection); format: in vivo, Wistar rats
# T1 construct: from tissue; host or cells: blood serum of Wistar rats
# T1 sequence (P47820 36-1313): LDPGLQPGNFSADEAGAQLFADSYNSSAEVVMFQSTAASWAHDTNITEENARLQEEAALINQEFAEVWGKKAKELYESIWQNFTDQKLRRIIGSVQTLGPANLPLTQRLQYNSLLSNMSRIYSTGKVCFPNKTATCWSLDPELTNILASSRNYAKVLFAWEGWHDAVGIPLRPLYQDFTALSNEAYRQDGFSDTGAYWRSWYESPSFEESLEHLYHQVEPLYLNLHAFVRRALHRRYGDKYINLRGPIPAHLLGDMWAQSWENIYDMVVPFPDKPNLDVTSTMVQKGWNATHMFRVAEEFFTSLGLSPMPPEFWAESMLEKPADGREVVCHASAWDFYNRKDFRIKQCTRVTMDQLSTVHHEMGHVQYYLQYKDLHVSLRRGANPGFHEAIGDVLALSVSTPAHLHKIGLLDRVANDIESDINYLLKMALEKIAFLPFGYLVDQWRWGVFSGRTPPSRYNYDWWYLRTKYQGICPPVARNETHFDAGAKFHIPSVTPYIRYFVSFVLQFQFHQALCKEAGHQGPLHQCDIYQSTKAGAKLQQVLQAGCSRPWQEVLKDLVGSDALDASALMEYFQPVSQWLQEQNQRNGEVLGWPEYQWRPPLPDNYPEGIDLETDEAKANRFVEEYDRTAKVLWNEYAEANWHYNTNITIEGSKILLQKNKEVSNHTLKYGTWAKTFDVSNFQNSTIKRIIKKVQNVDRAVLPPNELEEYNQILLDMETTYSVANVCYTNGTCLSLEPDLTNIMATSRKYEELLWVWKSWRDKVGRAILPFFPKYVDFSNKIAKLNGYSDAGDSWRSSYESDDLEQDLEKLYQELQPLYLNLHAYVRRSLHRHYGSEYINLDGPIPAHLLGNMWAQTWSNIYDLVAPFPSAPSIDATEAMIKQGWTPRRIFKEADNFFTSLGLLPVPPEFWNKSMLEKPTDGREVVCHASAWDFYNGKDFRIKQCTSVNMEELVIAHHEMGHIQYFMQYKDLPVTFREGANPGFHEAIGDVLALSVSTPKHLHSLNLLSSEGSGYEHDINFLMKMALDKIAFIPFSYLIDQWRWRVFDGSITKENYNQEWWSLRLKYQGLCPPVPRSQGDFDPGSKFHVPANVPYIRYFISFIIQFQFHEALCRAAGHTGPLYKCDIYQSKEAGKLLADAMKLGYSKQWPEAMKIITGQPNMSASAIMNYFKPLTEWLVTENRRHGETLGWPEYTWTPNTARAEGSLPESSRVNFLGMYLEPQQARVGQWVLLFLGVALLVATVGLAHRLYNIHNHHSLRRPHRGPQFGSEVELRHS
# Procedure: 24 Wistar rats, 280-300 g, were randomly divided into 3 groups, 8 rats per group, one group was control group, other two groups were separately 100 mg/kg, 200 mg/kg dose groups (which was added with cosolvent to form an injectable solution), subjected to intraperitoneal injection, the control group was administered with physiological saline. 60 min after administration, the rats were anesthetized with 1% pentobarbital sodium, subjected to thoracotomy and blood sample was taken from heart, the blood sample stood at room temperature for 30 min, centrifuged under 3500 r/min at low temperature for 10 min, the supernatant was taken and stored at about −65° C., for test. Measurement of ACE activity: referring to document [WANG, Fumin, et al, Chinese Journal of Laboratory Medicine, 1983, 6(3):145-151], the results were subjected to statistical treatment: the results were expressed in x±S, and data were subjected to analysis of variance and t-test.
# Long-term stability test = format: physicochemical
# [1] = test system: chronic ocular hypertension; test: Effects on chronic ocular hypertension of rabbits (dexamethasone model); format: in vivo; conditions: within 24 hours, puerarin hydrate 1% (W/V), betaxolol 0.5% (W/V), monohydrate
# Procedure: Chronic Ocular Hypertension Models: 32 rabbits, half male and half female, were subjected to sub-conjunctive injection with 0.5 mg of dexamethasone under corneal limbus, once every other day, for consecutive 3 weeks, to obtain chronic ocular hypertension models, then randomly divided into physiological saline group, betaxolol group [0.5% (W/V)], puerarin hydrate group [1% (W/V)]. The maximum decrease of intraocular pressure was measured within 24 hours.
# [2] = test system: arrhythmia induced by aconitine; test: Effects on arrhythmia caused by aconitine in rats; format: in vivo, SD rats; conditions: 200 mg · kg^−1 intravenous, n = 10, p < 0.05 vs physiological saline, monohydrate
# Procedure: 20 SD rats, male and female, body weight 185±19 g, randomly divided into 2 groups, separately administrated via intravenous injection with physiological saline, puerarin monohydrate (prepared by method of Example 1) (which was added with cosolvent to form an injectable solution) 200 mg·kg^−1. The rats were anesthetized with 3% pentobarbital sodium 40 mg·kg^−1, and fixed in supine position on operating table. The rats were subjected to injection via sublingual vein, after 6 min, subjected to intravenous injection of 0.0025% aconitine at a constant rate, 2 μg·min^−1 (0.08 ml·min^−1), the time of ventricular premature beat (VP), ventricular tachycardia (VT), ventricular fibrillation (VF) and cardiac arrest (CA) were recorded, and corresponding dosages were calculated.
smiles,measurement,setting,value
"O=c1c(-c2ccc(O)cc2)coc2c([C@@H]3O[C@H](CO)[C@@H](O)[C@H](O)[C@H]3O)c(O)ccc12 [Sample 1, puerarin monohydrate]",rat blood serum ACE activity compared with the control group,"ACE; 100 and 200 mg/kg intraperitoneal, P<0.01",dose-dependent decrease
same,inhibition at 100 mg/kg,"ACE; rat, ip, rats, 100 mg/kg intraperitoneal, vs control group, read-out: inhibition rate (%)",36.1%
same,ACE (IU),"ACE; rats, 100 mg/kg intraperitoneal, blood taken 60 min after administration",34.8 ± 6.19 IU
same,Marked content (%),Long-term stability test; sampling time 0 month,99.5%
same,Property,Long-term stability test; sampling time 0 month,off-white powder
same,Related substance (%),Long-term stability test; sampling time 0 month,<2%
same,Marked content (%),Long-term stability test; sampling time 3 month,99.6%
same,Property,Long-term stability test; sampling time 3 month,off-white powder
same,Related substance (%),Long-term stability test; sampling time 3 month,<2%
same,Marked content (%),Long-term stability test; sampling time 6 month,99.5%
same,Property,Long-term stability test; sampling time 6 month,off-white powder
same,Related substance (%),Long-term stability test; sampling time 6 month,<2%
same,Marked content (%),Long-term stability test; sampling time 9 month,99.4%
same,Property,Long-term stability test; sampling time 9 month,off-white powder
same,Related substance (%),Long-term stability test; sampling time 9 month,<2%
same,Marked content (%),Long-term stability test; sampling time 12 month,99.4%
same,Property,Long-term stability test; sampling time 12 month,off-white powder
same,Related substance (%),Long-term stability test; sampling time 12 month,<2%
same,Maximum decrease of intraocular pressure (mmHg),[1],2.6 mmHg
same,Dose of aconitine causing cardiac arrest (CA),[2]; listed as PW,0.0951 ± 0.0086 mg/kg
same,Dose of aconitine causing ventricular fibrillation (VF),[2]; listed as PW,0.0635 ± 0.0077 mg/kg
same,Dose of aconitine causing ventricular premature beat (VP),[2]; listed as PW,0.0331 ± 0.0073 mg/kg
same,Dose of aconitine causing ventricular tachycardia (VT),[2]; listed as PW,0.0449 ± 0.0072 mg/kg
same,Dose of aconitine causing cardiac arrest (CA),[2],significantly increased
same,Dose of aconitine causing ventricular fibrillation (VF),[2],significantly increased
same,Dose of aconitine causing ventricular premature beat (VP),[2],significantly increased
same,Dose of aconitine causing ventricular tachycardia (VT),[2],significantly increased
